Structures can show the parent of a compound that is named as a salt. Where two headings read alike, the source gives them in different places.
What was measured:
Assay type in all cases: biochemical
[1] = target: T1, human JAK2 (a.a. 828-1132) (Homo sapiens, UniProt O60674); test: In vitro JAK kinase assay (HTRF, phosphorylation of a biotinylated peptide), JAK2
T1 construct: JAK2 (a.a. 828-1132); His tag (N); made in house; host or cells: insect cells (baculovirus)
Summary of the method: (§1)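 Kinase activity was measured as phosphorylation of a biotinylated peptide, with ATP at 90 μM for JAK1, 30 μM for JAK2 and 3 μM for JAK3. Reactions ran 1 hr at room temperature, were stopped with EDTA plus SA-APC and Eu-Py20, and were read by HTRF after 40 minutes of antibody binding.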

[2] = target: TYK2 (Homo sapiens, UniProt P29597); test: TYK2 kinase inhibition (Table A1)
Chain of TYK2 (P29597 whole entry): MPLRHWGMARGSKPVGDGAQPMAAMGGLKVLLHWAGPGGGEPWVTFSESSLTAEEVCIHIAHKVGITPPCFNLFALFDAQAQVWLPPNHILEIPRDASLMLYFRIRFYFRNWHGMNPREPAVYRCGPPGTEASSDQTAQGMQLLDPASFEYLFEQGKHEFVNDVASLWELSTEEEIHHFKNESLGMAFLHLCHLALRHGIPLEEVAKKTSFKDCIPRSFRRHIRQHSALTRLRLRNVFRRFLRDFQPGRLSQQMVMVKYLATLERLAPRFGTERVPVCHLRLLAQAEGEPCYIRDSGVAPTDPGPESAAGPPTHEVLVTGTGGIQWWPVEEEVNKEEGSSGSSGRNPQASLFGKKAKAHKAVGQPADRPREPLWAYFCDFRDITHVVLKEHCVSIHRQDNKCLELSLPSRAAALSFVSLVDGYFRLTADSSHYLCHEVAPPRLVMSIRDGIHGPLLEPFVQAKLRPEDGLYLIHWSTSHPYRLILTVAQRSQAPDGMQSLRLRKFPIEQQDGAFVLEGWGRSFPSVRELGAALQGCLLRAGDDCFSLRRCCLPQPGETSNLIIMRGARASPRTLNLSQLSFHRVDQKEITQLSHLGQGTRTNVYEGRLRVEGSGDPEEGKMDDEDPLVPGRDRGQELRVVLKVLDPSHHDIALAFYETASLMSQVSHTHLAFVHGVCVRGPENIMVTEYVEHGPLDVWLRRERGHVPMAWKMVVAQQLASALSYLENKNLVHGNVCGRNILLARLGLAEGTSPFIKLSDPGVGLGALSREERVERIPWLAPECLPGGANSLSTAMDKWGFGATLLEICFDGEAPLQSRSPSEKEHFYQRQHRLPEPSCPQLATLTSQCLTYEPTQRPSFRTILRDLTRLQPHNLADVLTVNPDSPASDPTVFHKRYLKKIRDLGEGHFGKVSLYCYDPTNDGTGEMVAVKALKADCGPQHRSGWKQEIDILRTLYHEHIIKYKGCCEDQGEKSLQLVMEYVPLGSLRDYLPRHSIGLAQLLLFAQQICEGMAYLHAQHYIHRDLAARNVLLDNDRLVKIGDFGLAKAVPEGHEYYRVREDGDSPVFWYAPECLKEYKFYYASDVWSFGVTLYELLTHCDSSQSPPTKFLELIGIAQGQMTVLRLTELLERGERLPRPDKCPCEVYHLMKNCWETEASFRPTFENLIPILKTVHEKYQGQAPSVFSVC

[3] = target: T2, human JAK3 (a.a. 781-1124) (Homo sapiens, UniProt P52333); test: In vitro JAK kinase assay (HTRF, phosphorylation of a biotinylated peptide), JAK3
T2 construct: JAK3 (a.a. 781-1124); His tag (N); made in house; host or cells: insect cells (baculovirus)
T2 sequence (P52333 781-1124): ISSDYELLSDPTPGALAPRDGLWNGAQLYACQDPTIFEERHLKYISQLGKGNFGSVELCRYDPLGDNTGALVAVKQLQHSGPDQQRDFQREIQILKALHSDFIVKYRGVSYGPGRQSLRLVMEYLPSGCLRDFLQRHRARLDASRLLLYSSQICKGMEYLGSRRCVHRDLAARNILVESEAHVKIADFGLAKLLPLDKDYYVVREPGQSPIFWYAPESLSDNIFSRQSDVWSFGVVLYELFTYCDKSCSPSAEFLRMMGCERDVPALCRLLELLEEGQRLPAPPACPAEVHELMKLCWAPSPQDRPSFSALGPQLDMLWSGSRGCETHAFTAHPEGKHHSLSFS
Summary of the method: as §1

[4] = target: T3, human JAK1 (a.a. 837-1142) (Homo sapiens, UniProt P23458); test: In vitro JAK kinase assay (HTRF, phosphorylation of a biotinylated peptide), JAK1; conditions: read-out: JAK1 IC50
T3 construct: human JAK1 (a.a. 837-1142); His tag (N); made in house; host or cells: insect cells (baculovirus)
T3 sequence (P23458 849-1154): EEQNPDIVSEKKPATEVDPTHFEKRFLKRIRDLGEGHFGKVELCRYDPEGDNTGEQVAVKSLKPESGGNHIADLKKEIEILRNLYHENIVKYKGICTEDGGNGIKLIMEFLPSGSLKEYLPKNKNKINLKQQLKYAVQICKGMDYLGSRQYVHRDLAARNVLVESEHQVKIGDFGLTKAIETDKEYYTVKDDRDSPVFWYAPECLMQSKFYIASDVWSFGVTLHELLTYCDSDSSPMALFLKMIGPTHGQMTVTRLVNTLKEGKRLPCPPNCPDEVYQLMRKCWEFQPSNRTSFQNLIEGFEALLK
Summary of the method: as §1

T1 sequence (O60674 828-1132): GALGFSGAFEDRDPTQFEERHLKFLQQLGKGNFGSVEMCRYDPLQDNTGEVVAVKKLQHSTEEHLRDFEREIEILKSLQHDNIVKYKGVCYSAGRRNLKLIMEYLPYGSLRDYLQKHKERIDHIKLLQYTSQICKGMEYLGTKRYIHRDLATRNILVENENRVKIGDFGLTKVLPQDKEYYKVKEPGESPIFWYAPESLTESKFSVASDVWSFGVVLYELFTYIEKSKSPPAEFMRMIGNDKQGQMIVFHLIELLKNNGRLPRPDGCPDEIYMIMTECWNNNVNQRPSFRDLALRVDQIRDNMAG

| IC50 ([1]; Table D1) | IC50 ([2]; Table D1) | IC50 ([3]; Table D1) | IC50 ([4]; Table D1) | IC50 [1] | IC50 [2] | IC50 [3] | IC50 [4] | IC50 ([1]; method AA1 (30 μM ATP) or AA2 (1000 μM ATP), not stated per value) | IC50 ([3]; method AA1 (3 μM ATP) or AA2 (1000 μM ATP), not stated per value) | IC50 ([4]; method AA1 (90 μM ATP) or AA2 (1000 μM ATP), not stated per value) | Structure (SMILES) |
| --- | --- | --- | --- | --- | --- | --- | --- | --- | --- | --- | --- |
| 0.009 µM | 0.034 µM | 0.044 µM | 0.016 µM | – | – | – | – | – | – | – | O=C(C[C@H]1CCCN(C(=O)Nc2ccccc2)C1)Nc1ccc2cc1CCc1cccc(c1)Nc1ncc(Cl)c(n1)N2 [Example D197, (3R)-3-(2-{[6-Chloro-2,4,8,22-tetraazatetracyclo[14.3.1.1(3,7).1(9,13)]docosa-1(20),3(22),4,6,9(21),10,12,16,18-nonaen-12-yl]amino}-2-oxoethyl)-N-phenylpiperidine-1-carboxamide trifluoroacetate] |
| 0.064 µM | 0.046 µM | > 0.4 µM | 0.013 µM | – | – | – | – | – | – | – | Cc1cc(C(=O)N2CCC(CCNc3ccc4cc3CCc3cncc(c3)Nc3ncc(Cl)c(n3)N4)CC2)no1 [Example D218, 6-Chloro-N-(2-{1-[(5-methylisoxazol-3-yl)carbonyl]piperidin-4-yl}ethyl)-2,4,8,18,22-pentaazatetracyclo[14.3.1.1(3,7).1(9,13)]docosa-1(20),3(22),4,6,9(21),10,12,16,18-nonaen-12-amine tris(trifluoroacetate)] |
| 0.0064 µM | 0.031 µM | 0.057 µM | 0.011 µM | – | – | – | – | – | – | – | O=C(C[C@@H]1CCCN(C(=O)Nc2ccccc2)C1)Nc1ccc2cc1CCc1cccc(c1)Nc1ncc(Cl)c(n1)N2 [Example D196, (3S)-3-(2-{[6-Chloro-2,4,8,22-tetraazatetracyclo[14.3.1.1(3,7).1(9,13)]docosa-1(20),3(22),4,6,9(21),10,12,16,18-nonaen-12-yl]amino}-2-oxoethyl)-N-phenylpiperidine-1-carboxamide trifluoroacetate] |
| 0.208 µM | > 0.4 µM | > 0.4 µM | 0.052 µM | – | – | – | – | – | – | – | O=C(NCc1ccco1)N1CCC(CCOc2ccc3cc2CCc2cncc(c2)Nc2ncc(Cl)c(n2)N3)CC1 [Example D165, 4-(2-{[6-Chloro-2,4,8,18,22-pentaazatetracyclo[14.3.1.1(3,7).1(9,13)]docosa-1(20),3(22),4,6,9(21),10,12,16,18-nonaen-12-yl]oxy}ethyl)-N-(2-furylmethyl)piperidine-1-carboxamide bis(trifluoroacetate)] |
| > 0.4 µM | > 0.4 µM | > 0.4 µM | 0.082 µM | – | – | – | – | – | – | – | O=C(COc1ccc2cc1CCc1cncc(c1)Nc1ncc(Cl)c(n1)N2)N1CCN(c2cc(Cl)cc(Cl)n2)CC1 [Example D247, 6-Chloro-12-{2-[4-(4,6-dichloropyridin-2-yl)piperazin-1-yl]-2-oxoethoxy}-2,4,8,18,22-pentaazatetracyclo[14.3.1.1(3,7).1(9,13)]docosa-1(20),3(22),4,6,9(21),10,12,16,18-nonaene tris(trifluoroacetate)] |
| 0.0098 µM | 0.013 µM | 0.104 µM | 0.0047 µM | – | – | – | – | – | – | – | O=C(C[C@@H]1CCCNC1)Nc1ccc2cc1CCc1cccc(c1)Nc1ncc(Cl)c(n1)N2 [Example D192, N-[6-Chloro-2,4,8,22-tetraazatetracyclo[14.3.1.1(3,7).1(9,13)]docosa-1(20),3(22),4,6,9(21),10,12,16,18-nonaen-12-yl]-2-[(3S)-piperidin-3-yl]acetamidebis(trifluoroacetate)] |
| 0.0049 µM | 0.025 µM | 0.036 µM | 0.016 µM | – | – | – | – | – | – | – | O=C(Nc1ccccc1)N1CCN(c2ccc3cc2CCc2cccc(c2)Nc2ncc(Cl)c(n2)N3)CC1 [Example D92, 4-[6-Chloro-2,4,8,22-tetraazatetracyclo[14.3.1.1(3,7).1(9,13)]docosa-1(20),3(22),4,6,9(21),10,12,16,18-nonaen-12-yl]-N-phenylpiperazine-1-carboxamide bis(trifluoroacetate)] |
| 0.3 µM | 0.326 µM | > 0.4 µM | 0.06 µM | – | – | – | – | – | – | – | O=C(COc1ccc2cc1CCc1cncc(c1)Nc1ncc(Cl)c(n1)N2)N1CCN(c2ccncc2)CC1 [Example D243, 6-Chloro-12-[2-oxo-2-(4-pyridin-4-ylpiperazin-1-yl)ethoxy]-2,4,8,18,22-pentaazatetracyclo[14.3.1.1(3,7).1(9,13)]docosa-1(20),3(22),4,6,9(21),10,12,16,18-nonaene tris(trifluoroacetate)] |
| 0.136 µM | 0.435 µM | > 1 µM | 0.033 µM | – | – | – | – | – | – | – | O=C(CC1CN(C(=O)c2ccn[nH]2)C1)Nc1ccc2cc1CCc1cncc(c1)Nc1ncc(Cl)c(n1)N2 [Example D150, N-[6-Chloro-2,4,8,18,22-pentaazatetracyclo[14.3.1.1(3,7).1(9,13)]docosa-1(20),3(22),4,6,9(21),10,12,16,18-nonaen-12-yl]-2-[1-(1H-pyrazol-5-ylcarbonyl)azetidin-3-yl]acetamide bis(trifluoroacetate)] |
| > 0.4 µM | > 0.4 µM | > 0.4 µM | 0.313 µM | – | – | – | – | – | – | – | O=C(Cc1ccccc1)N1CCC(Nc2ccc3cc2CCc2cncc(c2)Nc2ncc(Cl)c(n2)N3)CC1 [Example D159, 6-Chloro-N-[1-(phenylacetyl)piperidin-4-yl]-2,4,8,18,22-pentaazatetracyclo[14.3.1.1(3,7).1(9,13)]docosa-1(20),3(22),4,6,9(21),10,12,16,18-nonaen-12-amine tris(trifluoroacetate)] |
| 0.075 µM | > 0.4 µM | > 0.4 µM | 0.039 µM | – | – | – | – | – | – | – | Cc1occc1NC(=O)N1CCC(CCOc2ccc3cc2CCc2cncc(c2)Nc2ncc(Cl)c(n2)N3)CC1 [Example D164, 4-(2-{[6-Chloro-2,4,8,18,22-pentaazatetracyclo[14.3.1.1(3,7).1(9,13)]docosa-1(20),3(22),4,6,9(21),10,12,16,18-nonaen-12-yl]oxy}ethyl)-N-(2-methyl-3-furyl)piperidine-1-carboxamide bis(trifluoroacetate)] |
| 0.235 µM | > 0.4 µM | > 0.4 µM | 0.039 µM | – | – | – | – | – | – | – | O=C(Nc1cccc(F)c1)N1CCC(CCOc2ccc3cc2CCc2cncc(c2)Nc2ncc(Cl)c(n2)N3)CC1 [Example D169, 4-(2-{[6-Chloro-2,4,8,18,22-pentaazatetracyclo[14.3.1.1(3,7).1(9,13)]docosa-1(20),3(22),4,6,9(21),10,12,16,18-nonaen-12-yl]oxy}ethyl)-N-(3-fluorophenyl)piperidine-1-carboxamide bis(trifluoroacetate)] |

Second part, the compound before the results:

| Structure (SMILES) | IC50 ([1]; Table D1) | IC50 ([2]; Table D1) | IC50 ([3]; Table D1) | IC50 ([4]; Table D1) | IC50 [1] | IC50 [2] | IC50 [3] | IC50 [4] | IC50 ([1]; method AA1 (30 μM ATP) or AA2 (1000 μM ATP), not stated per value) | IC50 ([3]; method AA1 (3 μM ATP) or AA2 (1000 μM ATP), not stated per value) | IC50 ([4]; method AA1 (90 μM ATP) or AA2 (1000 μM ATP), not stated per value) |
| --- | --- | --- | --- | --- | --- | --- | --- | --- | --- | --- | --- |
| O=C(Cc1nnn[nH]1)Nc1ccc2cc1CCc1cccc(c1)Nc1ncc(Cl)c(n1)N2 [Example C31, N-[6-Chloro-2,4,8,22-tetraazatetracyclo[14.3.1.1(3,7).1(9,13)]docosa-1(20),3(22),4,6,9(21),10,12,16,18-nonaen-12-yl]-2-(1H-tetrazol-5-yl)acetamide trifluoroacetate] | – | – | – | – | 0.024 µM | 0.481 µM | 0.404 µM | 0.14 µM | – | – | – |
| O=C(Cc1c[nH]c2ccccc12)Nc1ccc2cc1CCc1cccc(c1)Nc1ncc(Cl)c(n1)N2 [Example C29, N-[6-Chloro-2,4,8,22-tetraazatetracyclo[14.3.1.1(3,7).1(9,13)]docosa-1(20),3(22),4,6,9(21),10,12,16,18-nonaen-12-yl]-2-(1H-indol-3-yl)acetamide bis(trifluoroacetate)] | – | – | – | – | 0.068 µM | 0.227 µM | 1.03 µM | 0.043 µM | – | – | – |
| O=C(Cc1cccnc1)Nc1ccc2cc1CCc1cccc(c1)Nc1ncc(Cl)c(n1)N2 [Example C39, N-[6-Chloro-2,4,8,22-tetraazatetracyclo[14.3.1.1(3,7).1(9,13)]docosa-1(20),3(22),4,6,9(21),10,12,16,18-nonaen-12-yl]-2-pyridin-3-ylacetamide bis(trifluoroacetate)] | – | – | – | – | 0.029 µM | 0.195 µM | 1.22 µM | 0.054 µM | – | – | – |
| N#Cc1ccccc1S(=O)(=O)N1CCC(COc2ccc3cc2CCc2cncc(c2)Nc2ncc(Cl)c(n2)N3)C1 (stereo not drawn) [Example C57, 2-{[3-({[6-Chloro-2,4,8,18,22-pentaazatetracyclo[14.3.1.1(3,7).1(9,13)]docosa-1(20),3(22),4,6,9(21),10,12,16,18-nonaen-12-yl]oxy}methyl)pyrrolidin-1-yl]sulfonyl}benzonitrile bis(trifluoroacetate)] | – | – | – | – | 0.288 µM | > 0.4 µM | > 0.4 µM | > 0.4 µM | – | – | – |
| O=C(Nc1ccc2cc1CCc1cccc(c1)Nc1ncc(Cl)c(n1)N2)C1CCN(C(=O)Nc2ccc(Cl)nc2)CC1 [Example A40, N(1)-(6-Chloropyridin-3-yl)-N(4)-[6-chloro-2,4,8,22-tetraazatetracyclo[14.3.1.1(3,7).1(9,13)]docosa-1(20),3(22),4,6,9(21),10,12,16,18-nonaen-12-yl]piperidine-1,4-dicarboxamide bis(trifluoroacetate)] | – | – | – | – | – | 0.018 µM | – | – | 0.015 µM | 0.03 µM | 0.016 µM |
| O=C(Cc1ccccn1)Nc1ccc2cc1CCc1cccc(c1)Nc1ncc(Cl)c(n1)N2 [Example C41, N-[6-Chloro-2,4,8,22-tetraazatetracyclo[14.3.1.1(3,7).1(9,13)]docosa-1(20),3(22),4,6,9(21),10,12,16,18-nonaen-12-yl]-2-pyridin-2-ylacetamide bis(trifluoroacetate)] | – | – | – | – | 0.065 µM | 0.246 µM | 1.17 µM | 0.112 µM | – | – | – |

— patent US8871753B2, “Macrocyclic compounds and their use as kinase inhibitors” (Incyte Corporation, priority 2008, dated 2014)
